From paper PMC9638991, “Designed High-Redox Potential Laccases Exhibit High Functional Diversity” (ACS Catalysis, 2022)

Experiments:
Experiment in all cases: colorimetric oxidation kinetics, purified enzyme
Type in all cases: biochemical
[1] = target: T1, Th3 (Trametes hirsuta, UniProt B2L9C1, N227E/S448D, form not given); details: optimal pH, O2 as co-substrate
T1 construct: gene Lac; secreted from S. cerevisiae (pJRoC30), purified fraction, about 56 kDa; wild type not expressible

[2] = target: T2, OB-1 (basidiomycete PM1, UniProt Q12571); details: optimal pH; O2 as co-substrate
T2 construct: S. cerevisiae expression, purified

[3] = target: T3, Th3 (Trametes hirsuta, UniProt B2L9C1, N227H/F478W, form not given); details: optimal pH; O2 as co-substrate
T3 construct: gene Lac; secreted from S. cerevisiae (pJRoC30), purified fraction, about 56 kDa; wild type not expressible

[4] = target: T4, Th3 (Trametes hirsuta, UniProt B2L9C1); details: optimal pH 4, O2 as co-substrate
T4 construct: gene Lac; secreted from S. cerevisiae (pJRoC30), purified fraction, about 56 kDa; wild type not expressible

[5] = target: T5, Th3 (Trametes hirsuta, UniProt B2L9C1, F286M/A414S, form not given); details: optimal pH 5; O2 as co-substrate
T5 construct: gene Lac

[6] = text prints 'for Th3.7' inside a sentence on Th3.10 (apparent misprint, check Table S4)

T1 sequence (B2L9C1 entry or part of it N227E/S448D, form open): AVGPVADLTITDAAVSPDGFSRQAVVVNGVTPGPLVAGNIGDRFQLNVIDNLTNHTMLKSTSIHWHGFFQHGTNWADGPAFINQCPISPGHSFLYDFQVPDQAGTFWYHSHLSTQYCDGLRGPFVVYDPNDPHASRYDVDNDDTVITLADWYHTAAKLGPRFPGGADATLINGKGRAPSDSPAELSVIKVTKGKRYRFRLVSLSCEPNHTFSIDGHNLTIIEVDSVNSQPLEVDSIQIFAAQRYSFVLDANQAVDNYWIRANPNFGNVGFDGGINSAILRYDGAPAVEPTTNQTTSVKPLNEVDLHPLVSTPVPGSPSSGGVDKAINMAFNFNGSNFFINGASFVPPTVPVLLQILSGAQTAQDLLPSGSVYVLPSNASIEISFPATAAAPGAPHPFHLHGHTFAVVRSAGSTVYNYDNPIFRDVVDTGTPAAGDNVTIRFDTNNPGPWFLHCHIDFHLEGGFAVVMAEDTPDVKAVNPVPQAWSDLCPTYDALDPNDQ
T2 sequence (Q12571 entry or part of it): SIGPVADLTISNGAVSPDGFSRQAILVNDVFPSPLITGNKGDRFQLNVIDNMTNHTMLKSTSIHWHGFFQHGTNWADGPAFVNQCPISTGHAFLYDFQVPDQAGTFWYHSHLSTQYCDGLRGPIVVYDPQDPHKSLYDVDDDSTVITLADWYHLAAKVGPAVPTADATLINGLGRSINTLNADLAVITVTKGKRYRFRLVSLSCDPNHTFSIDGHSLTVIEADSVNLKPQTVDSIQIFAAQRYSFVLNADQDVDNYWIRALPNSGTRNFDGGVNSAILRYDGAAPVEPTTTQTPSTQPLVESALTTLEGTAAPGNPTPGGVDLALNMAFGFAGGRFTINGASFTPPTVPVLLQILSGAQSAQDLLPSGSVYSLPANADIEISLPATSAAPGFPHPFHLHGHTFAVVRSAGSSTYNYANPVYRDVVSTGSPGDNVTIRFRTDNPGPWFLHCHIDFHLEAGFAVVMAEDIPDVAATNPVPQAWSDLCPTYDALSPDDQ
T4 sequence (B2L9C1 entry or part of it): as the sequence (B2L9C1 entry or part of it N227E/S448D, form open) above, with E206N, D427S counted along it
T3 sequence (B2L9C1 entry or part of it N227H/F478W, form open): as the sequence (B2L9C1 entry or part of it N227E/S448D, form open) above, with E206H, D427S, F457W counted along it
T5 sequence (B2L9C1 entry or part of it F286M/A414S, form open): as the sequence (B2L9C1 entry or part of it N227E/S448D, form open) above, with E206N, F265M, A393S, D427S counted along it

Km [1, 6] | Km [2] | Km [3] | Km ([4]; purified fraction, values estimates) | Km [1] | Km [5] | Km [4] | Compound
17.1 µM | 165 ± 2 µM | 44 µM | 1280 µM |  |  |  | COc1cccc(OC)c1O [DMP, 2,6-dimethoxyphenol]
 | 1070 ± 30 µM |  |  | 667 ± 36 µM | 555 ± 85 µM | 1790 ± 160 µM | COc1ccccc1O [GUA, guaiacol]
150 µM | 81 ± 15 µM | 185 µM |  |  |  |  | COc1cc(/C=C/C(=O)O)cc(OC)c1O [SA, sinapic acid]
